{
  "source": "patent US7638516B2",
  "about": "“Agent for therapeutic treatment of optic nerve diseases and the like” (Mei Co., Ltd., priority 2000, dated 2009)",
  "system": "retinal degeneration induced by transient retinal ischemia",
  "assay": "Suppressing effect on retinal degeneration in transient retinal ischemia",
  "type": "in vivo, Wister male rats",
  "details": "rat, 3 mg/kg into the caudal vein immediately before and after ocular hypertension treatment (IOP 130 mmHg, 50 minutes); 7 days after treatment; p<0.01 relative to control",
  "method": "Wister male rats (body weight of about 200 g) were used. Each animal was subjected to sufficient warming treatment by using a thermal plate under anesthesia, and the head was fixed by using a stereotaxic apparatus. In order to induce transient retinal ischemia, IOP was maintained at 130 mmHg for 50 minutes by injecting intraocular irrigating solution into the anterior chamber via the cornea using an infusion tube and 30 G injection needle which were connected to a bottle held at 174 cm above the eyes (ocular hypertension treatment) according to the method of Akaike (Folia Pharmacologica Japonica, 111, pp. 97-104 (1998)). The ocular hypertension treatment was performed only on the right eye, and the left eye was left untreated. Immediately before and after the ocular hypertension treatment, a physiological saline solution or a dose of 3 mg/kg of MCI-186 was injected to the caudal vein. […] That is, a light-microscopic section of the retina was prepared 7 days after the ocular hypertension treatment, and the thickness of the retina was measured under microscope by using a micrometer (thickness from inner plexiform layer to inner nuclear layer). […] 7 days after the ocular hypertension treatment. Data represent means±SEM. As for the number of animals, the control group consisted of 10 rats, and the MCI-186 group consisted of 11 rats. […]",
  "data": [
    {"smiles": "CC1=NN(c2ccccc2)C(=O)C1", "note": "[MCI-186, 3-methyl-1-phenyl-2-pyrazolin-5-one]", "values": [
      {"measurement": "retinal degeneration induced by transient retinal ischemia (retinal thickness ratio, ocular hypertension treated eye/normal eye)", "value": "significantly suppressed"}
    ]}
  ]
}
